Publication PMC5011342, “A high throughput drug screening assay to identify compounds that promote oligodendrocyte differentiation using acutely dissociated and purified oligodendrocyte precursor cells” (BMC Research Notes, 2016)
Where two headings read alike, the source gives them in different places.

What was measured:
[1] = test system: acutely dissociated and purified rat OPCs; test: Acute OL differentiation assay (MBP expression/cell, immunofluorescent image quantification); format: cell-based
Procedure, shortened: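 This acute differentiation assay used purified rat OPCs from postnatal day 6–7 pups, seeded into PDL/laminin-coated 96-well plates in differentiation medium lacking PDGF and FGF. Compounds were applied in quadruplicate after a 1–2 h preincubation at 37 °C, 10 % CO2, with 0.1 % DMSO negative and 40 ng/ml T3 positive controls in eight wells. After fixation on DIV4, anti-MBP immunofluorescence images yielded MBP expression/cell.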

[2] = test system: expanded OPCs; test: cells; conditions: for viability at 0.1 µM / viability at 1 µM / viability at 10 µM: Rattus norvegicus, 72 h; for 0.1 µM (% DMSO) / 1 µM (% DMSO) / 10 µM (% DMSO): alamarBlue viability of expanded OPCs, relative to DMSO control; for 0.1 µM (% DMSO): compound at 0.1 µM; for 1 µM (% DMSO): compound at 1 µM; for 10 µM (% DMSO): compound at 10 µM
Procedure, shortened: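 Toxicity screen: compounds added at 0.1, 1 and 10 µM to PDGF-AA-expanded OPCs in 96-well plates, 3-day incubation at 37 °C, 10% CO2, then alamarBlue 1:10 for 4 h with fluorescence readout. Results set screening doses of 10/2, 2/0.4 or 0.4/0.08 µM.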

[3] = read-out: 0.1 µM (% DMSO), alamarBlue viability, NCC library compound at 0.1 µM, sheet "All Tox data"
[4] = read-out: 1 µM (% DMSO), alamarBlue viability, NCC library compound at 1 µM, sheet "All Tox data"
[5] = read-out: 10 µM (% DMSO), alamarBlue viability, NCC library compound at 10 µM, sheet "All Tox data"
[6] = Rattus norvegicus, 0.4 uM test compound, relative to quetiapine, sheet "All OLga data", read-out: OL differentiation, 0.4 uM (% Quet)
[7] = read-out: 0.1 µM (% DMSO), alamarBlue viability of expanded OPCs, compound at 0.1 µM, sheet All Tox data
[8] = read-out: 1 µM (% DMSO), alamarBlue viability of expanded OPCs, compound at 1 µM, sheet All Tox data
[9] = read-out: 10 µM (% DMSO), alamarBlue viability of expanded OPCs, compound at 10 µM, sheet All Tox data
[10] = Rattus norvegicus, test compound at 2 uM, NCC library screen, sheet "All OLga data", relative to quetiapine, read-out: 2 uM (% Quet)
[11] = Rattus norvegicus, test compound at 10 uM, NCC library screen, sheet "All OLga data", relative to quetiapine, read-out: 10 uM (% Quet)
[12] = Rattus norvegicus, 2 uM test compound, relative to quetiapine, sheet "All OLga data", read-out: OL differentiation, 2 uM (% Quet)
[13] = Rattus norvegicus, 10 uM test compound, relative to quetiapine, sheet "All OLga data", read-out: OL differentiation, 10 uM (% Quet)

Structure (SMILES)	viability at 0.1 µM [2, 7]	viability at 1 µM [2, 8]	viability at 10 µM [2, 9]	activation at 2 µM [1, 10]	activation at 10 µM [1, 11]	0.1 µM (% DMSO) [2]	1 µM (% DMSO) [2]	10 µM (% DMSO) [2]	also measured
COC(=O)C[C@](O)(CCCC(C)(C)O)C(=O)O[C@@H]1C(OC)=C[C@]23CCCN2CCc2cc4c(cc2[C@H]13)OCO4 [Homoharringtonine]									activation at 0.08 µM ([1]; Rattus norvegicus, test compound at 0.08 uM, NCC library screen, sheet "All OLga data", relative to quetiapine, read-out: 0.08 uM (% Quet)): -112%; activation at 0.4 µM ([1]; Rattus norvegicus, test compound at 0.4 uM, NCC library screen, sheet "All OLga data", relative to quetiapine, read-out: 0.4 uM (% Quet)): -172%; viability at 0.1 µM [2, 3]: 10.7%; viability at 1 µM [2, 4]: 9.9%; viability at 10 µM [2, 5]: 9.6%
C=CCc1ccc(O)c(-c2ccc(O)c(CC=C)c2)c1 [Honokiol]	95.4%	78.2%	11.4%						activation at 0.4 µM [1, 6]: 9.1%
C/C=C1\[C@H]2C=C(C)C[C@]1(N)c1ccc(=O)[nH]c1C2 [Huperzine A]				-19.5%	-60.7%				viability at 0.1 µM [2, 3]: 94.2%; viability at 1 µM [2, 4]: 90%; viability at 10 µM [2, 5]: 93.8%
NS(=O)(=O)c1cc2c(cc1Cl)NCNS2(=O)=O [Hydrochlorothiazide]						96.6 % DMSO	97.1 % DMSO	90.6 % DMSO	activation at 2 µM ([1]; Rattus norvegicus, test compound at 2 uM, MBP expression relative to quetiapine, NCC library screen, sheet "All OLga data", read-out: 2 uM (% Quet)): -36%; activation at 10 µM ([1]; Rattus norvegicus, test compound at 10 uM, MBP expression relative to quetiapine, NCC library screen, sheet "All OLga data", read-out: 10 uM (% Quet)): -46%
CCCC(=O)O[C@]1(C(=O)COC(=O)CC)CC[C@H]2[C@@H]3CCC4=CC(=O)CC[C@]4(C)[C@H]3[C@@H](O)C[C@@]21C [Hydrocortisone buteprate]				19.4%	13.5%	112.3 % DMSO	102.8 % DMSO	90.3 % DMSO	
NS(=O)(=O)c1cc2c(cc1C(F)(F)F)NCNS2(=O)=O [Hydroflumethiazide]				-24.5%	-39%	104.6 % DMSO	96.9 % DMSO	87.1 % DMSO	
O=C(O)c1cc2ccccc2c(Cc2c(O)c(C(=O)O)cc3ccccc23)c1O.OCCOCCN1CCN(C(c2ccccc2)c2ccc(Cl)cc2)CC1 [Hydroxyzine pamoate salt]						223.4 % DMSO	190.1 % DMSO	134.2 % DMSO	2 uM (% Quet) ([1]; test compound at 2 uM, NCC library screen, sheet "All OLga data", relative to quetiapine): 106.0 % Quet; 10 uM (% Quet) ([1]; test compound at 10 uM, NCC library screen, sheet "All OLga data", relative to quetiapine): 16.6 % Quet
O=c1c(O[C@@H]2O[C@H](CO)[C@H](O)[C@H](O)[C@H]2O)c(-c2ccc(O)c(O)c2)oc2cc(O)cc(O)c12 [Hyperoside]	90.3%	29.8%	14.6%						activation at 0.08 µM ([1]; Rattus norvegicus, 0.08 uM test compound, relative to quetiapine, sheet "All OLga data", read-out: OL differentiation, 0.08 uM (% Quet)): -14.3%; activation at 0.4 µM [1, 6]: -70.9%
CC(C)Cc1ccc(C(C)C(=O)O)cc1 (stereo not drawn) [Ibuprofen]				12%	-9.8%	91.7 % DMSO	90.2 % DMSO	89.1 % DMSO	
COc1ccc(-c2oc3c(CC=C(C)C)c(O[C@@H]4O[C@H](CO)[C@@H](O)[C@H](O)[C@H]4O)cc(O)c3c(=O)c2O[C@@H]2O[C@@H](C)[C@H](O)[C@@H](O)[C@H]2O)cc1 [Icariin]	86.4%	88.3%	88.8%						activation at 2 µM [1, 12]: 6.3%; activation at 10 µM [1, 13]: 9.8%
COC1=C(OC)C(=O)C(CCCCCCCCCCO)=C(C)C1=O [Idebenone]	99.7%	80.9%	11%						activation at 0.4 µM [1, 6]: -11.1%
CC(C(O)c1ccc(O)cc1)N1CCC(Cc2ccccc2)CC1 (stereo not drawn) [Ifenprodil, reference compound]	93%	135%	103%						activation at 2 µM [1, 12]: 162%; activation at 10 µM [1, 13]: 154%; EC50 ([1]; Rattus norvegicus, average EC50 for induction of OL differentiation from independent biological replicates, eight concentrations): 400 nM; hit in OL differentiation assay, MRF-TMC ([1]; ● = confirmed hit in this paper's assay): ●
